Laboratory results reported in PubChem BioAssay AID330 (DTP/NCI, 2004).
“And” between values parts separate entries of the source, which are not always exact repeats. Equal entries are not always repeated. Inconclusive results and toxic doses are left out. The calls were made as follows: active = survival T/C of 150% or more; inactive = T/C below 125% in these data.

Test system: P388 leukemia ip, CD2F1 mice, survival T/C
Experiment: NCI In Vivo Anticancer Drug Screen. Data for tumor model P388 Leukemia (intraperitoneal) in CD2F1 (CDF1) mice
Details: endpoint: median survival time, higher = longer survival
Summary of the method: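 Mice carrying the transplanted tumor received test compound or vehicle. Survival was recorded in each group, and the value is the treated-group measurement divided by that of the vehicle-treated control group.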

[1] = dose: 100.0 mg/kg/injection, schedule: Q04DX002 (ip), vehicle: saline
[2] = dose: 200.0 mg/kg/injection, schedule: Q04DX002 (ip), vehicle: saline
[3] = dose: 400.0 mg/kg/injection, schedule: Q04DX002 (ip), vehicle: saline
[4] = dose: 50.0 mg/kg/injection, schedule: Q01DX005 (ip), vehicle: saline with Tween-80
[5] = dose: 100.0 mg/kg/injection, schedule: Q01DX005 (ip), vehicle: saline with Tween-80
[6] = dose: 200.0 mg/kg/injection, schedule: Q01DX005 (ip), vehicle: saline with Tween-80
[7] = dose: 60.0 mg/kg/injection, schedule: Q01DX005 (ip), vehicle: saline with Tween-80
[8] = dose: 120.0 mg/kg/injection, schedule: Q01DX005 (ip), vehicle: saline with Tween-80
[9] = dose: 240.0 mg/kg/injection, schedule: Q01DX005 (ip), vehicle: saline with Tween-80
[10] = dose: 60.0 mg/kg/injection, schedule: Q01DX005 (ip), vehicle: Klucel (hydroxypropylcellulose) (HPC)
[11] = dose: 120.0 mg/kg/injection, schedule: Q01DX005 (ip), vehicle: Klucel (hydroxypropylcellulose) (HPC)
[12] = dose: 240.0 mg/kg/injection, schedule: Q01DX005 (ip), vehicle: Klucel (hydroxypropylcellulose) (HPC)
[13] = dose: 100.0 mg/kg/injection, schedule: Q01DX009 (ip), vehicle: Klucel (hydroxypropylcellulose) (HPC)
[14] = dose: 200.0 mg/kg/injection, schedule: Q01DX009 (ip), vehicle: Klucel (hydroxypropylcellulose) (HPC)
[15] = dose: 50.0 mg/kg/injection, schedule: Q01DX009 (ip), vehicle: Klucel (hydroxypropylcellulose) (HPC)
[16] = dose: 50.0 mg/kg/injection, schedule: Q01DX009 (ip), vehicle: saline
[17] = dose: 100.0 mg/kg/injection, schedule: Q01DX009 (ip), vehicle: saline
[18] = dose: 200.0 mg/kg/injection, schedule: Q01DX009 (ip), vehicle: saline
[19] = dose: 50.0 mg/kg/injection, schedule: Q01DX009 (ip), vehicle: saline with Tween-80
[20] = dose: 100.0 mg/kg/injection, schedule: Q01DX009 (ip), vehicle: saline with Tween-80
[21] = dose: 200.0 mg/kg/injection, schedule: Q01DX009 (ip), vehicle: saline with Tween-80
[22] = dose: 1.56 mg/kg/injection, schedule: Q01DX009 (ip), vehicle: water
[23] = dose: 3.12 mg/kg/injection, schedule: Q01DX009 (ip), vehicle: water
[24] = dose: 6.25 mg/kg/injection, schedule: Q01DX009 (ip), vehicle: water
[25] = dose: 12.5 mg/kg/injection, schedule: Q01DX009 (ip), vehicle: water
[26] = dose: 25.0 mg/kg/injection, schedule: Q01DX009 (ip), vehicle: water
[27] = dose: 50.0 mg/kg/injection, schedule: Q01DX009 (ip), vehicle: water
[28] = dose: 12.5 mg/kg/injection, schedule: Q01DX009 (ip), vehicle: saline with Tween-80
[29] = dose: 25.0 mg/kg/injection, schedule: Q01DX009 (ip), vehicle: saline with Tween-80

Measured: T/C

Cc1cc(C=C2C(=O)c3ccccc3C2=O)cc(C(C)(C)C)c1O
inactive: [1] 100 % of control | [2] 100 % of control | [3] 97 % of control

CCCCN1C(=O)NC(C)C1=O (stereo not drawn)
inactive: [4] 99 % of control | [5] 108 % of control | [6] 103 % of control

COc1ccc(C(c2cc3c(cc2O)OCO3)N2CCN(C(c3ccc(OC)cc3)c3cc4c(cc3O)OCO4)CC2)cc1 (stereo not drawn)
inactive: [7] 87 % of control | [8] 92 % of control | [9] 87 % of control

C=C(C)C1CC(=O)C2(C)OC2C1 (stereo not drawn)
inactive: [1] 101 % of control | [2] 100 % of control | [3] 97 % of control

CCOC(=O)Nc1cc(NC/C(=N\O)c2ccc3ccccc3c2)c([N+](=O)[O-])c(N)n1
inactive: [10] 100 % of control | [11] 100 % of control | [12] 96 % of control

CC(=O)C1=C(O)C2(O)C(=O)c3c(c(C)c4ccc(C)c(O)c4c3O)CC2C(N)C1=O (stereo not drawn)
inactive: dose: 7.5 mg/kg/injection, schedule: Q01DX009 (ip), vehicle: saline + alcohol 103 % of control and 107 % of control and 120 % of control | dose: 15.0 mg/kg/injection, schedule: Q01DX009 (ip), vehicle: saline + alcohol 103 % of control | dose: 30.0 mg/kg/injection, schedule: Q01DX009 (ip), vehicle: saline + alcohol 119 % of control | dose: 50.0 mg/kg/injection, schedule: Q04DX003 (ip), vehicle: saline with Tween-80 111 % of control | dose: 100.0 mg/kg/injection, schedule: Q04DX003 (ip), vehicle: saline with Tween-80 111 % of control

Oc1ccc(C2C=CCC2)cc1C1C=CCC1 (stereo not drawn)
inactive: [13] 106 % of control | [14] 116 % of control | dose: 400.0 mg/kg/injection, schedule: Q01DX009 (ip), vehicle: Klucel (hydroxypropylcellulose) (HPC) 115 % of control

CS(=O)(=O)/C=C/c1cccc(O)c1
inactive: [15] 97 % of control | [13] 96 % of control | [14] 89 % of control

Cc1cn(C2OC(CO)C(O)C2O)c(=O)nc1N (stereo not drawn)
inactive: dose: 25.0 mg/kg/injection, schedule: Q01DX005 (ip), vehicle: water 104 % of control | dose: 50.0 mg/kg/injection, schedule: Q01DX005 (ip), vehicle: water 101 % of control | dose: 100.0 mg/kg/injection, schedule: Q01DX005 (ip), vehicle: water 100 % of control | dose: 200.0 mg/kg/injection, schedule: Q01DX005 (ip), vehicle: water 96 % of control

CCOC([O-])=N/C(C)=N/[n+]1ccccc1
inactive: [16] 104 % of control | [17] 104 % of control | [18] 98 % of control

O=C1Nc2ccccc2C1=Nc1cccc2cnccc12
inactive: [10] 100 % of control | [11] 95 % of control | [12] 98 % of control

COc1ccc(/C=N/N(C)C(=O)Nc2cccc(Cl)c2)cc1OC
inactive: [19] 98 % of control | [20] 98 % of control | [21] 105 % of control

CCn1c(=O)c2[nH]c(C(F)(F)F)nc2n(CC)c1=O
inactive: dose: 25.0 mg/kg/injection, schedule: Q01DX009 (ip), vehicle: Klucel (hydroxypropylcellulose) (HPC) 86 % of control | [15] 99 % of control

C=C1COC(O)(C(OC)C(O)CC2CC(=O)NC(=O)C2)C1C (stereo not drawn)
inactive: dose: 0.01 mg/kg/injection, schedule: Q01DX009 (ip), vehicle: water 105 % of control | dose: 0.03 mg/kg/injection, schedule: Q01DX009 (ip), vehicle: water 104 % of control | dose: 0.06 mg/kg/injection, schedule: Q01DX009 (ip), vehicle: water 111 % of control | dose: 0.12 mg/kg/injection, schedule: Q01DX009 (ip), vehicle: water 117 % of control

Cc1ccc(S(=O)(=O)N/N=C/c2cccs2)cc1
inactive: [19] 95 % of control | [20] 87 % of control | [21] 93 % of control | dose: 400.0 mg/kg/injection, schedule: Q01DX009 (ip), vehicle: saline with Tween-80 102 % of control

CC1=Nc2ccccc2C(=O)NN1
inactive: dose: 100.0 mg/kg/injection, schedule: Q04DX002 (ip), vehicle: saline with Tween-80 101 % of control | dose: 200.0 mg/kg/injection, schedule: Q04DX002 (ip), vehicle: saline with Tween-80 101 % of control | dose: 400.0 mg/kg/injection, schedule: Q04DX002 (ip), vehicle: saline with Tween-80 102 % of control

C=C(C)C(=O)OCCC[Si](OCCOC)(OCCOC)OCCOC
inactive: [16] 95 % of control | [17] 95 % of control | [18] 106 % of control

O=NNc1cccnc1Cl
inactive: [22] 110 % of control | [23] 102 % of control and 108 % of control | [24] 99 % of control and 98 % of control | [25] 107 % of control and 110 % of control | [26] 107 % of control and 117 % of control | [27] 105 % of control

COc1ccc(CCNc2ccc(OC)c(OC)c2)cc1OC
inactive: [25] 91 % of control | [26] 98 % of control | [27] 100 % of control | dose: 100.0 mg/kg/injection, schedule: Q01DX009 (ip), vehicle: water 95 % of control | dose: 200.0 mg/kg/injection, schedule: Q01DX009 (ip), vehicle: water 90 % of control

COC1=CC(=C(c2ccc(O)c(OC)c2)c2ccc(O)c(OC)c2)C=CC1=O
inactive: [4] 117 % of control | [5] 119 % of control | [6] 115 % of control

CC1OC(OCc2ccc3c(c2)C(=O)c2ccccc2C3=O)CC(N)C1O (stereo not drawn)
inactive: [22] 105 % of control | [23] 104 % of control | [24] 100 % of control | [25] 100 % of control | [26] 103 % of control | [27] 92 % of control

Cc1ccc(C#N)s1
inactive: dose: 3.12 mg/kg/injection, schedule: Q01DX009 (ip), vehicle: saline with Tween-80 104 % of control | dose: 6.25 mg/kg/injection, schedule: Q01DX009 (ip), vehicle: saline with Tween-80 103 % of control | [28] 102 % of control | [29] 95 % of control

O=C(C[N+](=O)[O-])OCc1ccccc1
inactive: dose: 12.5 mg/kg/injection, schedule: Q01DX009 (ip), vehicle: other 101 % of control | dose: 25.0 mg/kg/injection, schedule: Q01DX009 (ip), vehicle: other 106 % of control | dose: 50.0 mg/kg/injection, schedule: Q01DX009 (ip), vehicle: other 113 % of control | dose: 100.0 mg/kg/injection, schedule: Q01DX009 (ip), vehicle: other 103 % of control

CCCCOCN(CCCc1ccccc1)COCCCC
inactive: [28] 89 % of control | [29] 102 % of control | [19] 118 % of control

O=[N+]([O-])c1ccc(N/N=C\c2cccc3c(/C=N/Nc4ccc([N+](=O)[O-])cc4[N+](=O)[O-])c(Cl)n(-c4ccccc4)c23)c([N+](=O)[O-])c1
inactive: dose: 25.0 mg/kg/injection, schedule: Q01DX001 (ip), vehicle: Klucel (hydroxypropylcellulose) (HPC) 102 % of control | dose: 50.0 mg/kg/injection, schedule: Q01DX001 (ip), vehicle: Klucel (hydroxypropylcellulose) (HPC) 95 % of control | dose: 100.0 mg/kg/injection, schedule: Q01DX001 (ip), vehicle: Klucel (hydroxypropylcellulose) (HPC) 93 % of control

Cc1ccc(O)c(C2CC(C#N)CCN2C)c1 (stereo not drawn)
inactive: [7] 98 % of control | [8] 100 % of control | [9] 105 % of control

CC(=O)Nc1n[nH]c(C)n1
inactive: dose: 25.0 mg/kg/injection, schedule: Q01DX005 (ip), vehicle: saline 97 % of control | dose: 50.0 mg/kg/injection, schedule: Q01DX005 (ip), vehicle: saline 106 % of control | dose: 100.0 mg/kg/injection, schedule: Q01DX005 (ip), vehicle: saline 97 % of control

COC(=O)C1(CC(=O)C2CC2)NC(=S)NC(=O)C1C#N (stereo not drawn)
inactive: [10] 103 % of control | [11] 100 % of control | [12] 100 % of control
